# In article PMC8788362, “Rational design and synthesis of 2-(1H-indazol-6-yl)-1H-benzo[d]imidazole derivatives as inhibitors targeting FMS-like tyrosine kinase 3 (FLT3) and its mutants” (Journal of Enzyme Inhibition and Medicinal Chemistry, 2022):
# Positions count from the first letter of the chain named.
# How the values were obtained:
# [1] = target: T1, FLT3 (D835Y) (Homo sapiens, UniProt P36888, D835Y); assay: Reaction Biology Kinase HotSpot radiometric kinase assay; type: biochemical
# T1 construct: purchased Reaction Biology Corp. (Kinase HotSpot service)
# T1 sequence (P36888 27-993 D835Y): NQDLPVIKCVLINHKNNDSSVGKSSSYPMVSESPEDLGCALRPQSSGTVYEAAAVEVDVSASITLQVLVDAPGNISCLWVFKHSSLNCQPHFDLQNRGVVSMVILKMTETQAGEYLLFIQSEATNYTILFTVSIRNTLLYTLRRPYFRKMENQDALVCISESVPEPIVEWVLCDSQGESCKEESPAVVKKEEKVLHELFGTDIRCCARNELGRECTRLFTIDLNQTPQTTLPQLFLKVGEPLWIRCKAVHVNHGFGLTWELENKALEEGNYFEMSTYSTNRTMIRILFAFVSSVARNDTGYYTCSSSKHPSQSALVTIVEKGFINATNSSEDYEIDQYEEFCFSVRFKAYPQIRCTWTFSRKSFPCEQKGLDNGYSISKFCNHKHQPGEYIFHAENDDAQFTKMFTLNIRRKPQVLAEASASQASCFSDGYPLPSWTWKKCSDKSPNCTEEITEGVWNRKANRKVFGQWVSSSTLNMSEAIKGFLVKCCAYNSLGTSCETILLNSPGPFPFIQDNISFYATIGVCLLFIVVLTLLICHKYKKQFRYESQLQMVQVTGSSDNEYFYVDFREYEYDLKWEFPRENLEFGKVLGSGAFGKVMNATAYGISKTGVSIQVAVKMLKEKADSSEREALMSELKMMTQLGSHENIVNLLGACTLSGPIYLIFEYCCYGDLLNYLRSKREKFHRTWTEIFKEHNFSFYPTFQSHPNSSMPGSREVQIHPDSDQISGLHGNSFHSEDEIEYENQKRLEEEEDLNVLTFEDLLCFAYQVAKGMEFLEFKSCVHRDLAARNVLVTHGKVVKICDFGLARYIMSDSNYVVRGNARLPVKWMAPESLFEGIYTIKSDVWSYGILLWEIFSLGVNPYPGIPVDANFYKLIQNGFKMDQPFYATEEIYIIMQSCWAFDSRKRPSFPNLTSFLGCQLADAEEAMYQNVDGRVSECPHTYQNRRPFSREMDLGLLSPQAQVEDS
# Description: (§1) (specific activity approx. 500 cpm/pmol, concentration as required).
# [2] = target: T2, FLT3 wild type (Homo sapiens, UniProt P36888); assay: as above; type: biochemical; conditions: ATP 10 µM; read-out: FLT3 IC50
# T2 construct: purchased Reaction Biology Corp. (Kinase HotSpot service)
# T2 sequence (P36888 27-993): T1 sequence (P36888 27-993 D835Y) with Y809D
# Description: as §1
melting point [°C],IC50 [1] [nM],IC50 [2] [nM],Structure (SMILES)
228 to 230,21,181,"CN1CCN(c2cc(C(=O)Nc3ccc4[nH]c(-c5ccc6cn[nH]c6c5)nc4c3)cc(C(F)(F)F)c2)CC1 [8a, N-(2-(1H-Indazol-6-yl)-1H-benzo[d]imidazol-5-yl)-3–(4-methylpiperazin-1-yl)-5-(trifluoromethyl)benzamide]"
239 to 241,110,639,"Cc1cn(-c2cc(C(=O)Nc3ccc4[nH]c(-c5ccc6cn[nH]c6c5)nc4c3)cc(C(F)(F)F)c2)cn1 [8b, N-(2-(1H-Indazol-6-yl)-1H-benzo[d]imidazol-5-yl)-3–(4-methyl-1H-imidazol-1-yl)-5-(trifluoromethyl)benzamide]"
251 to 253,108,470,"Cc1nccn1-c1cc(C(=O)Nc2ccc3[nH]c(-c4ccc5cn[nH]c5c4)nc3c2)cc(C(F)(F)F)c1 [8c, N-(2-(1H-Indazol-6-yl)-1H-benzo[d]imidazol-5-yl)-3–(2-methyl-1H-imidazol-1-yl)-5-(trifluoromethyl)benzamide]"
195 to 196,151,1030,"O=C(Nc1ccc2[nH]c(-c3ccc4cn[nH]c4c3)nc2c1)c1cc(N2CCOCC2)cc(C(F)(F)F)c1 [8d, N-(2-(1H-Indazol-6-yl)-1H-benzo[d]imidazol-5-yl)-3-morpholino-5-(trifluoromethyl)benzamide]"
160 to 161,44,154,"CN1CCN(c2ccc(C(=O)Nc3ccc4[nH]c(-c5ccc6cn[nH]c6c5)nc4c3)cc2C(F)(F)F)CC1 [8e, N-(2-(1H-Indazol-6-yl)-1H-benzo[d]imidazol-5-yl)-4–(4-methylpiperazin-1-yl)-3-(trifluoromethyl)benzamide]"
202 to 204,370,2510,"O=C(Nc1ccc2[nH]c(-c3ccc4cn[nH]c4c3)nc2c1)c1ccc(N2CCOCC2)c(C(F)(F)F)c1 [8f, N-(2-(1H-Indazol-6-yl)-1H-benzo[d]imidazol-5-yl)-4-morpholino-3-(trifluoromethyl)benzamide]"
258 to 260,63,1100,"O=C(Nc1ccc2[nH]c(-c3ccc4cn[nH]c4c3)nc2c1)c1cnn(-c2ccccc2)c1C(F)(F)F [8g, N-(2-(1H-Indazol-6-yl)-1H-benzo[d]imidazol-5-yl)-1-phenyl-5-(trifluoromethyl)-1H-pyrazole-4-carboxamide]"
147 to 149,82,702,"CC(C)(C)c1cc(C(=O)Nc2ccc3[nH]c(-c4ccc5cn[nH]c5c4)nc3c2)no1 [8h, N-(2-(1H-Indazol-6-yl)-1H-benzo[d]imidazol-5-yl)-5-(tert-butyl)isoxazole-3-carboxamide]"
215 to 217,84,676,"O=C(Nc1ccc2[nH]c(-c3ccc4cn[nH]c4c3)nc2c1)c1ccc(Cl)c(C(F)(F)F)c1 [8i, N-(2-(1H-Indazol-6-yl)-1H-benzo[d]imidazol-5-yl)-4-chloro-3-(trifluoromethyl)benzamide]"
255 to 257,103,514,"O=C(Nc1ccc2[nH]c(-c3ccc4cn[nH]c4c3)nc2c1)c1ccc(Cl)c(Cl)c1 [8j, N-(2-(1H-Indazol-6-yl)-1H-benzo[d]imidazol-5-yl)-3,4-dichlorobenzamide]"
206 to 208,191,761,"COc1ccc(/C=C/C(=O)Nc2ccc3[nH]c(-c4ccc5cn[nH]c5c4)nc3c2)cc1 [8k, (E)-N-(2-(1H-Indazol-6-yl)-1H-benzo[d]imidazol-5-yl)-3–(4-methoxyphenyl)acrylamide]"
184 to 186,261,1170,"CC(C)(C)c1cc(NC(=O)Nc2ccc3[nH]c(-c4ccc5cn[nH]c5c4)nc3c2)no1 [8l, 1–(2-(1H-Indazol-6-yl)-1H-benzo[d]imidazol-5-yl)-3–(5-(tert-butyl)isoxazol-3-yl)urea]"
144 to 146,1010,3580,"O=C(Nc1ccc(Cl)c(Cl)c1)Nc1ccc2[nH]c(-c3ccc4cn[nH]c4c3)nc2c1 [8m, 1–(2-(1H-Indazol-6-yl)-1H-benzo[d]imidazol-5-yl)-3–(3,4-dichlorophenyl)urea]"
283 to 285,113,287,"CN(C)C1CCN(c2cc(C(=O)Nc3ccc4[nH]c(-c5ccc6cn[nH]c6c5)nc4c3)cc(C(F)(F)F)c2)C1 (stereo not drawn) [8n, N-(2-(1H-Indazol-6-yl)-1H-benzo[d]imidazol-5-yl)-3–(3-(dimethylamino)pyrrolidin-1-yl)-5-(trifluoromethyl)benzamide]"
221 to 223,120,841,"CCN(CC)C1CCN(c2cc(C(=O)Nc3ccc4[nH]c(-c5ccc6cn[nH]c6c5)nc4c3)cc(C(F)(F)F)c2)C1 (stereo not drawn) [8o, N-(2-(1H-Indazol-6-yl)-1H-benzo[d]imidazol-5-yl)-3–(3-(diethylamino)pyrrolidin-1-yl)-5-(trifluoromethyl)benzamide]"
154 to 156,131,409,"O=C(Nc1ccc2[nH]c(-c3ccc4cn[nH]c4c3)nc2c1)c1cc(N2CCN(C3CC3)CC2)cc(C(F)(F)F)c1 [8p, N-(2-(1H-Indazol-6-yl)-1H-benzo[d]imidazol-5-yl)-3–(4-cyclopropylpiperazin-1-yl)-5-(trifluoromethyl)benzamide]"
150 to 152,174,525,"O=C(Nc1ccc2[nH]c(-c3ccc4cn[nH]c4c3)nc2c1)c1cc(CN2CCN(C3CC3)CC2)cc(C(F)(F)F)c1 [8q, N-(2-(1H-Indazol-6-yl)-1H-benzo[d]imidazol-5-yl)-3-((4-cyclopropylpiperazin-1-yl)methyl)-5-(trifluoromethyl)benzamide]"
175 to 177,25,158,"CN1CCC(Nc2cc(C(=O)Nc3ccc4[nH]c(-c5ccc6cn[nH]c6c5)nc4c3)cc(C(F)(F)F)c2)CC1 [8s, N-(2-(1H-Indazol-6-yl)-1H-benzo[d]imidazol-5-yl)-3-((1-methylpiperidin-4-yl)amino)-5-(trifluoromethyl)benzamide]"
166 to 168,87,285,"CCN1CCC(Nc2cc(C(=O)Nc3ccc4[nH]c(-c5ccc6cn[nH]c6c5)nc4c3)cc(C(F)(F)F)c2)CC1 [8t, N-(2-(1H-Indazol-6-yl)-1H-benzo[d]imidazol-5-yl)-3-((1-ethylpiperidin-4-yl)amino)-5-(trifluoromethyl)benzamide]"
293 to 295,55,289,"CN1CCC(Oc2cc(C(=O)Nc3ccc4[nH]c(-c5ccc6cn[nH]c6c5)nc4c3)cc(C(F)(F)F)c2)CC1 [8u, N-(2-(1H-Indazol-6-yl)-1H-benzo[d]imidazol-5-yl)-3-((1-methylpiperidin-4-yl)oxy)-5-(trifluoromethyl)benzamide]"
